Assays:
[1] = test system: sensitized guinea pigs exposed to ova albumin inhalation; test: Tachypnea protective effect in ova albumin sensitized animals; type: in vivo; settings: ketotifen 50: g/kg, treated for 21 days
Description: This experiment was an in vivo study to evaluate the tachypnea (protective) effect of the Nigella sativa L. lipid fraction of the present invention. The second protocol involved sensitized animals. Animals were sensitized by injecting ova albumin in two doses 100 mg each (S.C. and I.P., simultaneously). Animals were resensitized 15 days later. Guinea pigs were divided into three groups with 8 animals per group. The first group received a saline injection to serve as negative control. The second group received ketotifen which is the standard treatment to serve as positive control. The third group received 200 mg/kg each of the Nigella sativa L. lipid fraction of the present invention. Animals in all groups were treated for 21 days following which they were exposed to ova albumin inhalation and time to onset of tachypnea was recorded as shown in the table below.

[2] = test system: guinea pigs exposed to histamine aerosol (0.25%); test: Prophylactic anti-asthmatic effect, preconvulsive time on histamine aerosol; type: in vivo; settings: ketotifen 50: g/kg, treated for 21 days; histamine (0.25%) aerosol
Description: This example explains in vivo studies to evaluate the prophylactic (protective) anti-asthmatic effect of the Nigella sativa L. lipid fraction of the present invention. The prophylactic anti-asthmatic effect was evaluated in vivo by measurement of the preconvulsive time in guinea pigs exposed to histamine aerosol (0.25%).
Guinea pigs were divided into three groups with 8 animals per group. The first group received saline with injection to serve as negative control. The second group received ketotifen, which is the standard treatment to serve as positive control. The third group received 200 mg/kg each of the Nigella sativa L. lipid fraction of the present invention.
Animals in all groups were treated for 21 days following, after which they were exposed to histamine (0.25%) aerosol and the preconvulsive time was recorded.

[3] = 16 published human studies, total of 590 subjects; cited from earlier work
Salmonella typhi murium = test: In vitro antimicrobial comparison, bore method (zone of inhibition); type: cell-based; settings: Ampicillin 1: g/mg; mean ± S.E. of 4 observations
Description: (§1) The comparative antibacterial activity of ampicillin (1 microg/mg) and the Nigella sativa L. lipid fraction (1 mg/ml) against Staphylococcus pyogenes, Corynebacterium pyogenes and Salmonella typhi murium was performed in vitro using the bore method described by Cooper and Woodman (1964).

Staphylococcus pyogenes = test: as above; type: cell-based; settings: Ampicillin 1: g/mg; mean ± S.E. of 4 observations
Description: as §1

Corynebacterium pyogenes = test: as above; type: cell-based; settings: Ampicillin 1: g/mg; mean ± S.E. of 4 observations
Description: as §1

CN1CCC(=C2c3ccccc3CC(=O)c3sccc32)CC1 [ketotifen]
% of Prophylaxis [1]: 44.4% | % of Prophylaxis (Protection) [2]: 82.85%

phytosterol
average reduction in total cholesterol [3]: 10% | reduction in LDL cholesterol levels [3]: 13%

CC1(C)S[C@@H]2[C@H](NC(=O)[C@H](N)c3ccccc3)C(=O)N2[C@H]1C(=O)O [Ampicillin, ampicillin]
Diameter of Zone of inhibition (Salmonella typhi murium): 13.1 ± 0.2 mm | Diameter of Zone of inhibition (Staphylococcus pyogenes): 26.7 ± 0.3 mm | Diameter of Zone of inhibition (Corynebacterium pyogenes): 44.7 ± 0.8 mm

Reference: US20080152736A1, “Lipid Fraction of Nigella Sativa L. Seeds” (priority 2004, published 2008)
